Measured values taken from EP4328302A1, “SYNTHESIS OF […] P450 MONO[…] A […]-FREE SYSTEM […] VESICLES” (Fraunhofer-Gesellschaft zur Förderung der angewandten …, priority 2022, dated 2024).

Molecular target: T1, CYP3A4 (Homo sapiens, UniProt P08684)
T1 construct: made in house; host or cells: cell-free protein synthesis in translationally active lysates of CHO-K1 or modified CHO (CHO-CPR, CHO-CPR/CYP3A4) cells; plasmid template from Biocat GmbH
Test: Luciferase based CYP3A4 activity assay (P450-Glo, Luciferin-IPA turnover) in the microsomal fraction after cell-free synthesis with heme supplementation
Type: biochemical
Description: Synthesis of proteins in translationally active lysates derived from cultured Chinese hamster ovary (CHO) cells and its modified variants CHO-CPR and CHO-CPR/CYP3A4 cells, was performed in batch based systems as previously described (Thoring et al. 2016). Accordingly designed plasmids, suitable for CFPS, coding for the CYP of interest, were applied as template. T7 RNA Polymerase, amino acids, an energy regeneration system and other supplements were added to the translationally active lysates with the additional supplementation of 5 µM heme (porcine) (Alfa Aesar Haverhill, Massachusetts, USA) to the reaction and a reaction temperature of 24 °C despite elsewise noted. For the isolation of the microsomes the translation mixture (TM) was centrifuged at 16.000 x g for 10 minutes at 4 °C. […]
For CYP activity measurement,"P450-Glo™ Assays" (Promega, Madison, Wisconsin, USA) were used. CYP1A2 activity was detected by Luciferase-ME turnover (V8772), CYP2B6 was detected by Luciferin-2B6 turnover (V8321) and CYP3A4 was detected by Luciferin-IPA turnover (V9001). […] For response condition adjustments, CYP activities were usually expressed as percentage of the highest CYP activity during the assay. For CYP activity quantification, a standard curve was prepared using beetles luciferin (Promega, Madison, Wisconsin, USA) according to the attached protocol. […]

T1 sequence (P08684 whole entry): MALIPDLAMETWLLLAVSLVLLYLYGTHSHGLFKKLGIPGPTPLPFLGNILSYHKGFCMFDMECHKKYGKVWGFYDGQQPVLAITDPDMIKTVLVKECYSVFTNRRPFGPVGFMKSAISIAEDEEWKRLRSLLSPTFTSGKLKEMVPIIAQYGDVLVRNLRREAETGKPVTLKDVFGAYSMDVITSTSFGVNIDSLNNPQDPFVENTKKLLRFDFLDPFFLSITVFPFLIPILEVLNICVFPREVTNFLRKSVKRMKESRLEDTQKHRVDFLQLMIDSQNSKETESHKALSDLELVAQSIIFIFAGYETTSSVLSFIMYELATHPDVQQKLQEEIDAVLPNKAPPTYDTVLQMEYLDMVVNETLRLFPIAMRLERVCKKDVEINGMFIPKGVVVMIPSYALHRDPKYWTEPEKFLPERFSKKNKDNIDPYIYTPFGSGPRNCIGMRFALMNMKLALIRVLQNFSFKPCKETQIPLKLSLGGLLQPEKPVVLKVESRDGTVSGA

C=CC1=C(C)c2cc3[n-]c(cc4[n-]c(cc5nc(cc1n2)C(C)=C5C=C)c(C)c4CCC(=O)O)c(CCC(=O)O)c3C.[Fe+2] [heme]
CYP3A4 activity compared to the control without supplementation (heme concentration of 5 µM in the cell-free reaction, microsomal fraction (MF), triplicate analysis, highest CYP3A4 activity): more than twofold higher
reduced activity compared to the 5 µM heme supplemented sample (supplementation of higher concentrations of heme (above 5 µM) to the cell-free reaction, CYP3A4 activity in MF): 60%
